In one assay the target is T1, 5-LO (Homo sapiens, UniProt P09917).
T1 construct: incubating a test compound with heparinised human blood, prior to challenge with the calcium ionophore A23187; endogenous in cells; host or cells: blood cells in heparinised human whole blood
T1 sequence (P09917 1-674): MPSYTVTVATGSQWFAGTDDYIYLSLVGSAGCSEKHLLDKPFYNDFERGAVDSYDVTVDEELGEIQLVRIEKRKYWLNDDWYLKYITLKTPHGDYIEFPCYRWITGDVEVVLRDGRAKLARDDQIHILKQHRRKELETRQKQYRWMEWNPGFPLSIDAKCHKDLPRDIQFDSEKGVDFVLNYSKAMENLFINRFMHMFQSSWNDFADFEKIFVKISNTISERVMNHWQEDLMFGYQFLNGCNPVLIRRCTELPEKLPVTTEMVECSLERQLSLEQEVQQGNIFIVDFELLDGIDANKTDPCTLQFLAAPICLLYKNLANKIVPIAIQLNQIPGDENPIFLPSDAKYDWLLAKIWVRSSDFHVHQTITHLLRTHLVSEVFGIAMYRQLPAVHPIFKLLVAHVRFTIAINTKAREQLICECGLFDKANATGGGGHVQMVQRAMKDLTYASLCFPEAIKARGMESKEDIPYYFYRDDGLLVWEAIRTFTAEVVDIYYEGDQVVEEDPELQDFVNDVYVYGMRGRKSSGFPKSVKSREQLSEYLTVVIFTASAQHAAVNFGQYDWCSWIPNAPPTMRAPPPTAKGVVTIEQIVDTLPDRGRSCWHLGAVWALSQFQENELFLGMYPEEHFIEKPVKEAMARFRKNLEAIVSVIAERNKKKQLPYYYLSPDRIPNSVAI
In words: Test b): in vitro heparinised human blood challenged with calcium ionophore A23187, radioimmunoassay of LTB4. The format is cell-based. The conditions noted are these: A23187 challenge, read-out: IC₅₀ against LTB₄. How it is done:
(§1) As stated previously, the heterocyclic ethers of the formula I are inhibitors of the enzyme 5-LO. […] This test provides a measure of the intrinsic inhibitory properties against soluble 5-LO in an extracellular environment. • b) An in vitro assay system involving incubating a test compound with heparinised human blood, prior to challenge with the calcium ionophore A23187 and then indirectly measuring the inhibitory effects on 5-LO by assaying the amount of LTB₄ using the specific radioimmunoassay described by Carey and Forder (F. Carey and R.A. Forder, Brit. […] The effects of a test compound on the enzyme cyclooxygenase (which is involved in the alternative metabolic pathway for arachidonic acid and gives rise to prostaglandins, thromboxanes and related metabolites) may be measured at the same time using the specific radioimmunoassay for thromboxane B₂(TxB₂) described by Carey and Forder (see above). […] It permits the selectivity of the inhibitory effect on 5-LO or cyclooxygenase to be assessed. • c) An ex vivo assay system, which is a variation of test b) above, involving administration of a test compound (usually orally as the suspension produced when a solution of the test compound in dimethylsulphoxide is added to carboxymethylcellulose), blood collection, heparinisation, challenge with A23187 and radioimmunoassay of LTB₄ and TxB₂. […]

The next assay addresses T2, cyclooxygenase (Homo sapiens, UniProt P23219).
T2 construct: against 5-LO and also cyclooxygenase in the presence of blood cells and proteins; endogenous in cells; host or cells: blood cells in heparinised human whole blood
In words: Test b): in vitro heparinised human blood challenged with calcium ionophore A23187, radioimmunoassay of TxB2. In kind it is cell-based. The conditions noted are these: A23187 challenge, read-out: IC₅₀ against TxB₂. Here is the method: as §1

T2 sequence (P23219 24-599): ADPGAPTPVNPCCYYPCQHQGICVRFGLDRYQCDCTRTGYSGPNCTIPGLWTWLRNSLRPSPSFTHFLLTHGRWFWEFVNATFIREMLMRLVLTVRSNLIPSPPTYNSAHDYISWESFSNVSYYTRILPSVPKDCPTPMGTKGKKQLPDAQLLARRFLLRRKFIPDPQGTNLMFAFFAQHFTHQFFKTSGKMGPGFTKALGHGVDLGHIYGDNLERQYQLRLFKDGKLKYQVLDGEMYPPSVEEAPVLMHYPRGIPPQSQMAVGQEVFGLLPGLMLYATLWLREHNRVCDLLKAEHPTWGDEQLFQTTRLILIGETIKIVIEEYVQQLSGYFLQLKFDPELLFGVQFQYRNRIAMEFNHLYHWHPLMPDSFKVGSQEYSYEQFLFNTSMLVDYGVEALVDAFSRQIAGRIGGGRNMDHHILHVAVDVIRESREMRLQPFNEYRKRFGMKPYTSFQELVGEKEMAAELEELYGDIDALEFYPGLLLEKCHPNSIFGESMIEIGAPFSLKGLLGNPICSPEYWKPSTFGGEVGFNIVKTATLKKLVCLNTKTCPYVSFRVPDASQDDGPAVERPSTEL

Turning to `C=CCOCC(CC)(OCC=C)c1cc(F)cc(OCc2ccc3c(ccc(=O)n3C)c2)c1` (stereo not drawn) [2-allyloxy-2-[5-fluoro-3-(1,2-dihydro-1-methyl-2-oxoquinolin-6-ylmethoxy)phenyl]but-1-yl allyl ether], the IC50 on 5-LO came out at 100 nM.
In the case of `CCC(COC)(OC)c1cccc(OCC#Cc2ccccn2)c1` (stereo not drawn) [2-methoxy-2-[3-(3-(2-pyridyl)prop-2-yn-1-yloxy)phenyl]but-1-yl methyl ether], the IC50 at 5-LO was 1000 nM; on cyclooxygenase it was over 40 µM.

The values above are taken from EP0385680B1, “Heterocyclic ethers as 5-lipoxygenase inhibitors” (ZENECA LIMITED, priority 1989, dated 1990).
